# Assays:
# [1] = biological target: Lysine-specific demethylase 5A (Homo sapiens, UniProt P29375); assay: Enzymatic Assay: The enzymatic assay of Jarid1A activity is based upon Time Resolved-Fluorescence Resonance Energy Transfer (TR-FRET) detection. […] The reaction mixture was incubated at room temperature for 30 minutes, and terminated by the addition of 6 μl of 5 mM EDTA in LANCE detection buffer containing 50 nM Phycolink Streptavidin-allophycocyanin and 2 nM Europium-anti-H3K4me1-2 antibody.
# Sequence of Lysine-specific demethylase 5A (P29375 whole entry): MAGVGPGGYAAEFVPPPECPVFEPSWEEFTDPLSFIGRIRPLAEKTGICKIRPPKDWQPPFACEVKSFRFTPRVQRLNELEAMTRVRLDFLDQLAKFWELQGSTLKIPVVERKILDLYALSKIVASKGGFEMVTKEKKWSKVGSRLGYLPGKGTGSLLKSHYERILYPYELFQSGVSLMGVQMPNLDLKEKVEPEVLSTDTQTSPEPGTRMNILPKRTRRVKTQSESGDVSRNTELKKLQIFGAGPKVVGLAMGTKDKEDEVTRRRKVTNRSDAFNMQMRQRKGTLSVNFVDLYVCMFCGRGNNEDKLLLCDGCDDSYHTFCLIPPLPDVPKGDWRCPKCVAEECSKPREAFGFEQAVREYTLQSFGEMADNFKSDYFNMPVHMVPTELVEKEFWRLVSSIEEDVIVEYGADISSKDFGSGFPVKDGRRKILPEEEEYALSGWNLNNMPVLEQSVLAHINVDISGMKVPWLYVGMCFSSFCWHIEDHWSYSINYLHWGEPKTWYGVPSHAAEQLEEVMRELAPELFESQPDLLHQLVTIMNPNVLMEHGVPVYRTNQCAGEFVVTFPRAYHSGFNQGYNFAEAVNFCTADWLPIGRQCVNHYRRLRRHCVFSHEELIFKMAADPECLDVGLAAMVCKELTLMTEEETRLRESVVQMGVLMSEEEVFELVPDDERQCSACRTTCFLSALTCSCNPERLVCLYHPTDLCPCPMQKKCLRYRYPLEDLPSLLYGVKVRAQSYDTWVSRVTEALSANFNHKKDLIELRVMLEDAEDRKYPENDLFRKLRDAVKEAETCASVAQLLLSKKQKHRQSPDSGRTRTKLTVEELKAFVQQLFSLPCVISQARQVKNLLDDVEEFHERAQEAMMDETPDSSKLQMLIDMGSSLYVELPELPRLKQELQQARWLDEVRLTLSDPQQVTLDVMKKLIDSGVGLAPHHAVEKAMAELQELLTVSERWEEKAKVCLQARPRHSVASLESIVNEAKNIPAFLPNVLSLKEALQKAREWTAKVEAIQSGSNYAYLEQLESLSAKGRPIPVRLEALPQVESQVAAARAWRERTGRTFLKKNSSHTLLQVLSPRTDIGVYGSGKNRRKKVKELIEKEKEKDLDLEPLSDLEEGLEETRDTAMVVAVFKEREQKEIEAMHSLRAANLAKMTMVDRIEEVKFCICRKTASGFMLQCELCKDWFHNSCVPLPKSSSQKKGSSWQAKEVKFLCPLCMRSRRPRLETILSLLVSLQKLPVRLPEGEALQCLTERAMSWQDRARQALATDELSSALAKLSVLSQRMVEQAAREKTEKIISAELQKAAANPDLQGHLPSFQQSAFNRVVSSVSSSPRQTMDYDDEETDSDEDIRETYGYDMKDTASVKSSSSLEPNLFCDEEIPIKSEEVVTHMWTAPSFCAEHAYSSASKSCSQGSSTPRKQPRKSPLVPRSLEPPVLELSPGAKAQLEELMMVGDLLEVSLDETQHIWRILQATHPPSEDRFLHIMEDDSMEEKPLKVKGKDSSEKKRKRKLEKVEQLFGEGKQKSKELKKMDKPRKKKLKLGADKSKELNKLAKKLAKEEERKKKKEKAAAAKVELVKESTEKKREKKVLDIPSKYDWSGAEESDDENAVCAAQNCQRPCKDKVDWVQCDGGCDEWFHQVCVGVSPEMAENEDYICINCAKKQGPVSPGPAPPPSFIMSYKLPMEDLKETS
# [2] = biological target: Lysine-specific demethylase 5B (Homo sapiens, UniProt Q9UGL1); assay: The reaction mixture was incubated at room temperature for 30 minutes, and terminated by the addition of 6 μl of 5 mM EDTA in LANCE detection buffer containing 50 nM Phycolink Streptavidin-allophycocyanin and 2 nM Europium-anti-H3K4me1-2 antibody.
# Sequence of Lysine-specific demethylase 5B (Q9UGL1 whole entry): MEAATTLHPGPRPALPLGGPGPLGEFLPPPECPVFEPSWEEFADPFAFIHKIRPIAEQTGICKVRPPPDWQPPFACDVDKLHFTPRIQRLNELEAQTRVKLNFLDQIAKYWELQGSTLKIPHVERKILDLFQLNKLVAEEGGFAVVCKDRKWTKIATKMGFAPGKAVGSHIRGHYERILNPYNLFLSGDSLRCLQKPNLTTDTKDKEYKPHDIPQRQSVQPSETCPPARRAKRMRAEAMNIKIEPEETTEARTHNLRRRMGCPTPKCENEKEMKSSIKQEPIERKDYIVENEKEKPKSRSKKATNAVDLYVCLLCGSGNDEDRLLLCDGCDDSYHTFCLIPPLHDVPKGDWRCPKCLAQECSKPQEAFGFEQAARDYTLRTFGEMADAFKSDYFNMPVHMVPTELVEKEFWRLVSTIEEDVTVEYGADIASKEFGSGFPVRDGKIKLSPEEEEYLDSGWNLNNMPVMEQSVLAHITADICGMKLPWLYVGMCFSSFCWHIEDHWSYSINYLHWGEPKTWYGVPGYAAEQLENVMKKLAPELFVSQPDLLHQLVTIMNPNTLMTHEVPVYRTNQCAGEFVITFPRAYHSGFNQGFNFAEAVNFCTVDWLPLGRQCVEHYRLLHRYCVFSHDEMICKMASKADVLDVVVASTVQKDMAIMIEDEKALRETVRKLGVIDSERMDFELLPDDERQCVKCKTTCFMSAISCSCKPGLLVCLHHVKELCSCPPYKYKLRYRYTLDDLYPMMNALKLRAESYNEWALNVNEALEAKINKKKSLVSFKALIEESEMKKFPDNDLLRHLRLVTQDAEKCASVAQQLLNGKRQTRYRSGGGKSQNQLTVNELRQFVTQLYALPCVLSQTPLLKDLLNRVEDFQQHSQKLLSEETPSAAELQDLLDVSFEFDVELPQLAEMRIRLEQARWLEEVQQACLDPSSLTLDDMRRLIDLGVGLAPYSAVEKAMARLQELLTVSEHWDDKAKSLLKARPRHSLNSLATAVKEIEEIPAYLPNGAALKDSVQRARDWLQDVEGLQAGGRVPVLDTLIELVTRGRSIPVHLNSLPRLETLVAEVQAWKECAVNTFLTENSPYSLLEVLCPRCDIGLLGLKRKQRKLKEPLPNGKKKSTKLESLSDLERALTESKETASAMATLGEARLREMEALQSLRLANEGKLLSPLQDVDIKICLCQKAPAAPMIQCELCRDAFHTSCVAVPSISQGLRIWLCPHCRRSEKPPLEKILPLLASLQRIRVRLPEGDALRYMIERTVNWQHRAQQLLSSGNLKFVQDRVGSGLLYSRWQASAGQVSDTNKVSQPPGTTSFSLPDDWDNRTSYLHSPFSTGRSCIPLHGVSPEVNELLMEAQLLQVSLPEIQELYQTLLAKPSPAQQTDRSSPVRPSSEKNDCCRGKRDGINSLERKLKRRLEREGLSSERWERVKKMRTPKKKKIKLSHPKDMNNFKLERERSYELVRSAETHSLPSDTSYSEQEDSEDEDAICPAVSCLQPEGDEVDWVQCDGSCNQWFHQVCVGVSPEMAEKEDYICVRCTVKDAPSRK
compound,measurement,setting,value
CCCn1nc(Nc2cnccc2C(=O)O)c2cccc(C)c21,IC50,[1],< 100 nM
same,IC50,[2],< 100 nM

# — ChEMBL document CHEMBL5726107, “Histone demethylase inhibitors” (2017)
